Reference: patent US20240300932A1, “N-PHENYLIMINE DERIVATIVE AND PREPARATION METHOD AND USE THEREOF” (Guizhou University, priority 2023, published 2024)

How the values were obtained:
Assay in all cases: Post-emergence herbicidal activity test (stem and leaf spray, pot culture)
Format in all cases: in vivo
Details in all cases: 3 weeks after spraying
Trifoliumre pensL. = test system: Trifoliumre pensL.
Outline: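 Rates of 10, 5 and 2.5 g/mu were applied in a single spray-tower treatment to 2–3-leaf plants, thinned to 10 per pot. Formulation: acetone solution, Tween 80, 1.5 L/ha methyl oleate synergist. Weed response assessed after 3 further greenhouse weeks; mean of three experiments.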

Setaria viridis = test system: Setaria viridis
Outline: (§1)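 Greenhouse pot-grown weeds (loam, pH 7) sprayed post-emergence at 2- to 3-leaf stage with acetone/Tween 80 formulation plus 1.5 liters/ha methyl oleate, at 10, 5 and 2.5 g/mu. Fresh-weight growth control rated 3 weeks later on 0–5 grade scale.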

Echinochloa crusgalli = test system: Echinochloa crusgalli
Outline: as §1

Abutilon theophrasti = test system: Abutilon theophrasti
Outline: as §1

Portulaca oleracea = test system: Portulaca oleracea
Outline: as §1

Amaranthus retroflexus = test system: Amaranthus retroflexus
Outline: as §1

CC(C)(C)c1ccc(-c2noc(COc3cc(N4C(=O)C5=C(CCCC5)C4=O)c(F)cc3Cl)n2)cc1 [Compound A26]
Post-emergence herbicidal activity, Trifoliumre pensL. (grade) (Trifoliumre pensL.; dosage 2.5 g/mu): 4 (Grade 4: the growth control rate is greater than or equal to 60% and less than 85%)
Post-emergence herbicidal activity, Trifoliumre pensL. (grade) (Trifoliumre pensL.; dosage 5 g/mu): 5 (Grade 5: the growth control rate is greater than or equal to 85%)
Post-emergence herbicidal activity, Trifoliumre pensL. (grade) (Trifoliumre pensL.; dosage 10 g/mu): 5 (Grade 5: the growth control rate is greater than or equal to 85%)
Post-emergence herbicidal activity, S. viridis (grade) (Setaria viridis; dosage 2.5 g/mu): 2 (Grade 2: the growth control rate is greater than or equal to 20% and less than 40%)
Post-emergence herbicidal activity, S. viridis (grade) (Setaria viridis; dosage 5 g/mu): 3 (Grade 3: the growth control rate is greater than or equal to 40% and less than 60%)
Post-emergence herbicidal activity, S. viridis (grade) (Setaria viridis; dosage 10 g/mu): 4 (Grade 4: the growth control rate is greater than or equal to 60% and less than 85%)
Post-emergence herbicidal activity, E. crusgalli (grade) (Echinochloa crusgalli; dosage 2.5 g/mu): 1 (Grade 1: the growth control rate is greater than or equal to 5% and less than 20%)
Post-emergence herbicidal activity, E. crusgalli (grade) (Echinochloa crusgalli; dosage 5 g/mu): 2 (Grade 2: the growth control rate is greater than or equal to 20% and less than 40%)
Post-emergence herbicidal activity, E. crusgalli (grade) (Echinochloa crusgalli; dosage 10 g/mu): 3 (Grade 3: the growth control rate is greater than or equal to 40% and less than 60%)
Post-emergence herbicidal activity, A. theophrasti (grade) (Abutilon theophrasti; dosage 2.5 g/mu): 5 (Grade 5: the growth control rate is greater than or equal to 85%)
Post-emergence herbicidal activity, A. theophrasti (grade) (Abutilon theophrasti; dosage 5 g/mu): 5 (Grade 5: the growth control rate is greater than or equal to 85%)
Post-emergence herbicidal activity, A. theophrasti (grade) (Abutilon theophrasti; dosage 10 g/mu): 5 (Grade 5: the growth control rate is greater than or equal to 85%)
Post-emergence herbicidal activity, P. oleracea (grade) (Portulaca oleracea; dosage 2.5 g/mu): 4 (Grade 4: the growth control rate is greater than or equal to 60% and less than 85%)
Post-emergence herbicidal activity, P. oleracea (grade) (Portulaca oleracea; dosage 5 g/mu): 5 (Grade 5: the growth control rate is greater than or equal to 85%)
Post-emergence herbicidal activity, P. oleracea (grade) (Portulaca oleracea; dosage 10 g/mu): 5 (Grade 5: the growth control rate is greater than or equal to 85%)
Post-emergence herbicidal activity, A. retroflexus (grade) (Amaranthus retroflexus; dosage 2.5 g/mu): 5 (Grade 5: the growth control rate is greater than or equal to 85%)
Post-emergence herbicidal activity, A. retroflexus (grade) (Amaranthus retroflexus; dosage 5 g/mu): 5 (Grade 5: the growth control rate is greater than or equal to 85%)
Post-emergence herbicidal activity, A. retroflexus (grade) (Amaranthus retroflexus; dosage 10 g/mu): 5 (Grade 5: the growth control rate is greater than or equal to 85%)

O=C1C2=C(CCCC2)C(=O)N1c1cc(OCc2nc(-c3ccc(I)cc3)no2)c(Cl)cc1F [Compound A27]
Post-emergence herbicidal activity, Trifoliumre pensL. (grade) (Trifoliumre pensL.; dosage 2.5 g/mu): 5 (Grade 5: the growth control rate is greater than or equal to 85%)
Post-emergence herbicidal activity, Trifoliumre pensL. (grade) (Trifoliumre pensL.; dosage 5 g/mu): 5 (Grade 5: the growth control rate is greater than or equal to 85%)
Post-emergence herbicidal activity, Trifoliumre pensL. (grade) (Trifoliumre pensL.; dosage 10 g/mu): 5 (Grade 5: the growth control rate is greater than or equal to 85%)
Post-emergence herbicidal activity, S. viridis (grade) (Setaria viridis; dosage 2.5 g/mu): 2 (Grade 2: the growth control rate is greater than or equal to 20% and less than 40%)
Post-emergence herbicidal activity, S. viridis (grade) (Setaria viridis; dosage 5 g/mu): 3 (Grade 3: the growth control rate is greater than or equal to 40% and less than 60%)
Post-emergence herbicidal activity, S. viridis (grade) (Setaria viridis; dosage 10 g/mu): 4 (Grade 4: the growth control rate is greater than or equal to 60% and less than 85%)
Post-emergence herbicidal activity, E. crusgalli (grade) (Echinochloa crusgalli; dosage 2.5 g/mu): 1 (Grade 1: the growth control rate is greater than or equal to 5% and less than 20%)
Post-emergence herbicidal activity, E. crusgalli (grade) (Echinochloa crusgalli; dosage 5 g/mu): 2 (Grade 2: the growth control rate is greater than or equal to 20% and less than 40%)
Post-emergence herbicidal activity, E. crusgalli (grade) (Echinochloa crusgalli; dosage 10 g/mu): 3 (Grade 3: the growth control rate is greater than or equal to 40% and less than 60%)
Post-emergence herbicidal activity, A. theophrasti (grade) (Abutilon theophrasti; dosage 2.5 g/mu): 5 (Grade 5: the growth control rate is greater than or equal to 85%)
Post-emergence herbicidal activity, A. theophrasti (grade) (Abutilon theophrasti; dosage 5 g/mu): 5 (Grade 5: the growth control rate is greater than or equal to 85%)
Post-emergence herbicidal activity, A. theophrasti (grade) (Abutilon theophrasti; dosage 10 g/mu): 5 (Grade 5: the growth control rate is greater than or equal to 85%)
Post-emergence herbicidal activity, P. oleracea (grade) (Portulaca oleracea; dosage 2.5 g/mu): 5 (Grade 5: the growth control rate is greater than or equal to 85%)
Post-emergence herbicidal activity, P. oleracea (grade) (Portulaca oleracea; dosage 5 g/mu): 5 (Grade 5: the growth control rate is greater than or equal to 85%)
Post-emergence herbicidal activity, P. oleracea (grade) (Portulaca oleracea; dosage 10 g/mu): 5 (Grade 5: the growth control rate is greater than or equal to 85%)
Post-emergence herbicidal activity, A. retroflexus (grade) (Amaranthus retroflexus; dosage 2.5 g/mu): 5 (Grade 5: the growth control rate is greater than or equal to 85%)
Post-emergence herbicidal activity, A. retroflexus (grade) (Amaranthus retroflexus; dosage 5 g/mu): 5 (Grade 5: the growth control rate is greater than or equal to 85%)
Post-emergence herbicidal activity, A. retroflexus (grade) (Amaranthus retroflexus; dosage 10 g/mu): 5 (Grade 5: the growth control rate is greater than or equal to 85%)

O=C1C2=C(CCCC2)C(=O)N1c1cc(OCc2nnc(-c3ccccc3F)o2)c(Cl)cc1F [Compound B1]
Post-emergence herbicidal activity, Trifoliumre pensL. (grade) (Trifoliumre pensL.; dosage 2.5 g/mu): 5 (Grade 5: the growth control rate is greater than or equal to 85%)
Post-emergence herbicidal activity, Trifoliumre pensL. (grade) (Trifoliumre pensL.; dosage 5 g/mu): 5 (Grade 5: the growth control rate is greater than or equal to 85%)
Post-emergence herbicidal activity, Trifoliumre pensL. (grade) (Trifoliumre pensL.; dosage 10 g/mu): 5 (Grade 5: the growth control rate is greater than or equal to 85%)
Post-emergence herbicidal activity, S. viridis (grade) (Setaria viridis; dosage 2.5 g/mu): 2 (Grade 2: the growth control rate is greater than or equal to 20% and less than 40%)
Post-emergence herbicidal activity, S. viridis (grade) (Setaria viridis; dosage 5 g/mu): 3 (Grade 3: the growth control rate is greater than or equal to 40% and less than 60%)
Post-emergence herbicidal activity, S. viridis (grade) (Setaria viridis; dosage 10 g/mu): 4 (Grade 4: the growth control rate is greater than or equal to 60% and less than 85%)
Post-emergence herbicidal activity, E. crusgalli (grade) (Echinochloa crusgalli; dosage 2.5 g/mu): 1 (Grade 1: the growth control rate is greater than or equal to 5% and less than 20%)
Post-emergence herbicidal activity, E. crusgalli (grade) (Echinochloa crusgalli; dosage 5 g/mu): 2 (Grade 2: the growth control rate is greater than or equal to 20% and less than 40%)
Post-emergence herbicidal activity, E. crusgalli (grade) (Echinochloa crusgalli; dosage 10 g/mu): 3 (Grade 3: the growth control rate is greater than or equal to 40% and less than 60%)
Post-emergence herbicidal activity, A. theophrasti (grade) (Abutilon theophrasti; dosage 2.5 g/mu): 5 (Grade 5: the growth control rate is greater than or equal to 85%)
Post-emergence herbicidal activity, A. theophrasti (grade) (Abutilon theophrasti; dosage 5 g/mu): 5 (Grade 5: the growth control rate is greater than or equal to 85%)
Post-emergence herbicidal activity, A. theophrasti (grade) (Abutilon theophrasti; dosage 10 g/mu): 5 (Grade 5: the growth control rate is greater than or equal to 85%)
Post-emergence herbicidal activity, P. oleracea (grade) (Portulaca oleracea; dosage 2.5 g/mu): 5 (Grade 5: the growth control rate is greater than or equal to 85%)
Post-emergence herbicidal activity, P. oleracea (grade) (Portulaca oleracea; dosage 5 g/mu): 5 (Grade 5: the growth control rate is greater than or equal to 85%)
Post-emergence herbicidal activity, P. oleracea (grade) (Portulaca oleracea; dosage 10 g/mu): 5 (Grade 5: the growth control rate is greater than or equal to 85%)
Post-emergence herbicidal activity, A. retroflexus (grade) (Amaranthus retroflexus; dosage 2.5 g/mu): 5 (Grade 5: the growth control rate is greater than or equal to 85%)
Post-emergence herbicidal activity, A. retroflexus (grade) (Amaranthus retroflexus; dosage 5 g/mu): 5 (Grade 5: the growth control rate is greater than or equal to 85%)
Post-emergence herbicidal activity, A. retroflexus (grade) (Amaranthus retroflexus; dosage 10 g/mu): 5 (Grade 5: the growth control rate is greater than or equal to 85%)

Cc1cccc(-c2nnc(COc3cc(N4C(=O)C5=C(CCCC5)C4=O)c(F)cc3Cl)o2)c1 [Compound B3, 2-(4-chloro-2-fluoro-5-(5-(3-tolyl)-1,3,4-oxadiazole-2-methoxy)phenyl)-4,5,6,7-tetrahydro-1H-isoindole-1,3(2H)-dione]
Post-emergence herbicidal activity, Trifoliumre pensL. (grade) (Trifoliumre pensL.; dosage 2.5 g/mu): 5 (Grade 5: the growth control rate is greater than or equal to 85%)
Post-emergence herbicidal activity, Trifoliumre pensL. (grade) (Trifoliumre pensL.; dosage 5 g/mu): 5 (Grade 5: the growth control rate is greater than or equal to 85%)
Post-emergence herbicidal activity, Trifoliumre pensL. (grade) (Trifoliumre pensL.; dosage 10 g/mu): 5 (Grade 5: the growth control rate is greater than or equal to 85%)
Post-emergence herbicidal activity, S. viridis (grade) (Setaria viridis; dosage 2.5 g/mu): 2 (Grade 2: the growth control rate is greater than or equal to 20% and less than 40%)
Post-emergence herbicidal activity, S. viridis (grade) (Setaria viridis; dosage 5 g/mu): 3 (Grade 3: the growth control rate is greater than or equal to 40% and less than 60%)
Post-emergence herbicidal activity, S. viridis (grade) (Setaria viridis; dosage 10 g/mu): 4 (Grade 4: the growth control rate is greater than or equal to 60% and less than 85%)
Post-emergence herbicidal activity, E. crusgalli (grade) (Echinochloa crusgalli; dosage 2.5 g/mu): 1 (Grade 1: the growth control rate is greater than or equal to 5% and less than 20%)
Post-emergence herbicidal activity, E. crusgalli (grade) (Echinochloa crusgalli; dosage 5 g/mu): 2 (Grade 2: the growth control rate is greater than or equal to 20% and less than 40%)
Post-emergence herbicidal activity, E. crusgalli (grade) (Echinochloa crusgalli; dosage 10 g/mu): 3 (Grade 3: the growth control rate is greater than or equal to 40% and less than 60%)
Post-emergence herbicidal activity, A. theophrasti (grade) (Abutilon theophrasti; dosage 2.5 g/mu): 5 (Grade 5: the growth control rate is greater than or equal to 85%)
Post-emergence herbicidal activity, A. theophrasti (grade) (Abutilon theophrasti; dosage 5 g/mu): 5 (Grade 5: the growth control rate is greater than or equal to 85%)
Post-emergence herbicidal activity, A. theophrasti (grade) (Abutilon theophrasti; dosage 10 g/mu): 5 (Grade 5: the growth control rate is greater than or equal to 85%)
Post-emergence herbicidal activity, P. oleracea (grade) (Portulaca oleracea; dosage 2.5 g/mu): 5 (Grade 5: the growth control rate is greater than or equal to 85%)
Post-emergence herbicidal activity, P. oleracea (grade) (Portulaca oleracea; dosage 5 g/mu): 5 (Grade 5: the growth control rate is greater than or equal to 85%)
Post-emergence herbicidal activity, P. oleracea (grade) (Portulaca oleracea; dosage 10 g/mu): 5 (Grade 5: the growth control rate is greater than or equal to 85%)
Post-emergence herbicidal activity, A. retroflexus (grade) (Amaranthus retroflexus; dosage 2.5 g/mu): 5 (Grade 5: the growth control rate is greater than or equal to 85%)
Post-emergence herbicidal activity, A. retroflexus (grade) (Amaranthus retroflexus; dosage 5 g/mu): 5 (Grade 5: the growth control rate is greater than or equal to 85%)
Post-emergence herbicidal activity, A. retroflexus (grade) (Amaranthus retroflexus; dosage 10 g/mu): 5 (Grade 5: the growth control rate is greater than or equal to 85%)
